For this assay, the target named is T1, UBE2T (Homo sapiens, UniProt Q9NPD8).
T1 construct: fluorescently labelled UBE2T protein for MST
As to the kind of experiment: microscale thermophoresis. It counts as binding. To be noted: fluorescently labelled UBE2T; compound titrated 31 nM to 500 μM.

T1 sequence (Q9NPD8 whole entry): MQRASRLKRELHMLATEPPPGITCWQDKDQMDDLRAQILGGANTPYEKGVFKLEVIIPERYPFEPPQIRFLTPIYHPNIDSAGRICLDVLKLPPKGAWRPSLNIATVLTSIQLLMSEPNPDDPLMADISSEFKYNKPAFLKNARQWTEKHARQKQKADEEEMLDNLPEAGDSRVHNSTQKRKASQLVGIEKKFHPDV

In turn, `NS(=O)(=O)c1ccc(NC(=O)c2c(O)c3c4c(sc3[nH]c2=O)CCCC4)cc1` [M435-1279] showed a Kd of 50.5 µM.
